This is an account of results in US8796310B2, “Amino-pyridine-containing spleen tyrosine kinase (SYK) inhibitors” (Merck Sharp & Dohme Corp., priority 2011, dated 2014).

Structures can show the parent of a compound that is named as a salt. Some results are limits rather than exact numbers.

In the first data set the test system is PGD2.
Test: not given
Conditions: dosed intranasally, phase I/II study, allergic rhinitis; cited from earlier work.
Regarding `Oc1cccc(Nc2ncc(F)c(Nc3cccc(O)c3)n2)c1` [Example R112], the clinical safety result is “safe across a range of indicators” and the “decrease in PGD2” value was “statistically significant decrease”.

System in another data set: not given
Test: not given
Conditions: phase II clinical trial, allergic rhinitis; cited from earlier work.
As for `Oc1cccc(Nc2ncc(F)c(Nc3cccc(O)c3)n2)c1` [Example R112], the efficacy versus placebo result is listed as “lack of efficacy”.

A further data set addresses recombinant human GST-Syk (Homo sapiens (Human), UniProt P43405). The data set can be described thus: Homogeneous Time-Resolved Fluorescence (HTRF) assay for the recombinant human Syk enzyme. Format: biochemical. Particulars: GST-hSyk 5 pM, ATP 25 μM, 10-dose titration 10 μM to 0.508 nM; values below lowest test concentration given as <0.50. As for the experimental part: Biological Assay Homogeneous Time-Resolved Fluorescence (HTRF) Assay for the Recombinant Human Syk Enzyme
A recombinant GST-hSyk fusion protein was used to measure potency of compounds to inhibit human Syk activity. […] Final volume of the reaction was 10 μL. Phosphorylation of the peptide was allowed to proceed for 45′ at rt. To quench the reaction and detect the phosphorylated product, 2 nM of a Europium-anti-phosphotyrosine antibody (Perkin Elmer #AD0161) and 70 nM SA-APC (Perkin-Elmer #CR130-100) were added together in 15 mM Tris pH 7.5, 40 mM EDTA, 0.01% tween 20. Final volume of the quenching solution was 10 μL. The resulting HTRF signal was measured after 30 minutes on a EnVision (Perkin-Elmer) reader using a time-resolved fluorescence protocol.
With `Cc1cc(Nc2cc(C3CC3)ccn2)nc(-c2cnc(C3(O)CCCc4cc(C(=O)O)ccc43)s2)c1` (stereo not drawn) [Example 1U, 5-(5-{6-[(4-cyclopropylpyridin-2-yl)amino]-4-methylpyridin-2-yl}-1,3-thiazol-2-yl)-5-hydroxy-5,6,7,8-tetrahydronaphthalene-2-carboxylic acid], the IC50 was below 500 pM.

`Cc1cc(Nc2cc(-c3nnc(C)o3)ccn2)nc(-c2cnc(C3(O)CCCc4cc(C(=O)O)ccc43)s2)c1` (stereo not drawn) [Example 1S, 5-hydroxy-5-[5-(4-methyl-6-{[4-(5-methyl-1,3,4-oxadiazol-2-yl)pyridin-2-yl]amino}pyridin-2-yl)-1,3-thiazol-2-yl]-5,6,7,8-tetrahydronaphthalene-2-carboxylic acid]: the IC50 is below 500 pM.

Regarding `CCCc1ccnc(Nc2cc(C)cc(-c3cnc(C4(O)CCCc5cc(C(=O)O)ccc54)s3)n2)c1` (stereo not drawn) [Example 1M, 5-hydroxy-5-(5-{4-methyl-6-[(4-propylpyridin-2-yl)amino]pyridin-2-yl}-1,3-thiazol-2-yl)-5,6,7,8-tetrahydronaphthalene-2-carboxylic acid], the IC50 was below 500 pM.

Consider `Cc1cc(Nc2cc(OC(C)(C)C)ccn2)nc(-c2cnc([C@@]3(O)CCCc4cc(C(=O)O)ccc43)s2)c1` [Example 1, (R)-5-(5-{6-[(4-Tert-butoxypyridin-2-yl)amino]-4-methylpyridin-2-yl}-1,3-thiazol-2-yl)-5-hydroxy-5,6,7,8-tetrahydronaphthalene-2-carboxylic acid, ammonia salt], for which the IC50 is below 500 pM.

As for `Cc1cc(Nc2cc(C(C)C)ccn2)nc(-c2cnc(C3(O)CCCc4cc(C(=O)O)ccc43)s2)c1` (stereo not drawn) [Example 1V, 5-hydroxy-5-[5-(4-methyl-6-{[4-(1-methylethyl)pyridin-2-yl]amino}pyridin-2-yl)-1,3-thiazol-2-yl]-5,6,7,8-tetrahydronaphthalene-2-carboxylic acid], the IC50 was below 500 pM.

For `Cc1cc(Nc2cc(C(F)(F)F)ccn2)nc(-c2cnc(C3(O)CCCCc4c(C(=O)O)cccc43)s2)c1` (single isomer, unassigned) [Example 15G, (R or S)-5-hydroxy-5-[5-(4-methyl-6-{[4-(trifluoromethyl)pyridin-2-yl]amino}pyridin-2-yl)-1,3-thiazol-2-yl]-6,7,8,9-tetrahydro-5H-benzo[7]annulene-1-carboxylic acid], the IC50 was below 500 pM.

`Cc1cc(Nc2cc(N3CCNCC3)ccn2)nc(-c2cnc(C3(O)CCCc4cc(C(=O)O)ccc43)s2)c1` (stereo not drawn) [Example 1D, 5-hydroxy-5-[5-(4-methyl-6-{[4-(piperazin-1-yl)pyridin-2-yl]amino}pyridin-2-yl)-1,3-thiazol-2-yl]-5,6,7,8-tetrahydronaphthalene-2-carboxylic acid]: the concentration for half-maximal inhibition (IC50) was below 500 pM.

Turning to `Cc1cc(Nc2cc(C3CCC3)ccn2)nc(-c2cnc(C3(O)CCCc4cc(C(=O)O)ccc43)s2)c1` (stereo not drawn) [Example 1K, 5-(5-{6-[(4-cyclobutylpyridin-2-yl)amino]-4-methylpyridin-2-yl}-1,3-thiazol-2-yl)-5-hydroxy-5,6,7,8-tetrahydronaphthalene-2-carboxylic acid], the IC50 was below 500 pM.

On to `Cc1ccnc(Nc2cc(C)cc(-c3cnc(C4(O)CCCc5cc(C(=O)O)ccc54)s3)n2)c1` (stereo not drawn) [Example 1H, 5-hydroxy-5-(5-{4-methyl-6-[(4-methylpyridin-2-yl)amino]pyridin-2-yl}-1,3-thiazol-2-yl)-5,6,7,8-tetrahydronaphthalene-2-carboxylic acid], for which the IC50 was below 500 pM.

In the case of `Cc1cc(Nc2cc(C(F)(F)F)ccn2)nc(-c2cnc([C@@]3(O)CCCc4cc(C(=O)Nc5nnn[nH]5)ccc43)s2)c1` [Example 22E, (R)-5-hydroxy-5-[5-(4-methyl-6-{[4-(trifluoromethyl)pyridin-2-yl]amino}pyridin-2-yl)-1,3-thiazol-2-yl]-N-1H-tetrazol-5-yl-5,6,7,8-tetrahydronaphthalene-2-carboxamide], the IC50 was below 500 pM.

Take `Cc1cc(Nc2cc(-n3ccc(C)n3)ccn2)nc(-c2cnc(C3(O)CCCc4cc(C(=O)O)ccc43)s2)c1` (stereo not drawn) [Example 1J, 5-hydroxy-5-[5-(4-methyl-6-{[4-(3-methyl-1H-pyrazol-1-yl)pyridin-2-yl]amino}pyridin-2-yl)-1,3-thiazol-2-yl]-5,6,7,8-tetrahydronaphthalene-2-carboxylic acid]: the IC50 was below 500 pM.

Turning to `Cc1cc(Nc2cc(-n3cccn3)ccn2)nc(-c2cnc(C3(O)CCCc4cc(C(=O)O)ccc43)s2)c1` (stereo not drawn) [Example 1F, 5-hydroxy-5-[5-(4-methyl-6-{[4-(1H-pyrazol-1-yl)pyridin-2-yl]amino}pyridin-2-yl)-1,3-thiazol-2-yl]-5,6,7,8-tetrahydronaphthalene-2-carboxylic acid], the half-inhibitory concentration (IC50) was below 500 pM.

For `Cc1cc(Nc2cc(OC(C)C)ccn2)nc(-c2cnc(C3(O)CCCc4cc(C(=O)O)ccc43)s2)c1` (stereo not drawn) [Example 1R, 5-hydroxy-5-[5-(4-methyl-6-{[4-(propan-2-yloxy)pyridin-2-yl]amino}pyridin-2-yl)-1,3-thiazol-2-yl]-5,6,7,8-tetrahydronaphthalene-2-carboxylic acid], the IC50 was below 500 pM.

As for `Cc1cc(Nc2cc(C(F)F)ccn2)nc(-c2cnc(C3(O)CCCc4cc(C(=O)O)ccc43)s2)c1` (stereo not drawn) [Example 1A, 5-[5-(6-{[4-(difluoromethyl)pyridin-2-yl]amino}-4-methylpyridin-2-yl)-1,3-thiazol-2-yl]-5-hydroxy-5,6,7,8-tetrahydronaphthalene-2-carboxylic acid], the IC50 was below 500 pM.

With `Cc1cc(Nc2cc(C(F)(F)F)ccn2)nc(-c2cnc([C@@]3(O)CCCc4cc(C(=O)NS(=O)(=O)C5CC5)ccc43)s2)c1` [Example 22A, (R)-N-(cyclopropylsulfonyl)-5-hydroxy-5-[5-(4-methyl-6-{[4-(trifluoromethyl)pyridin-2-yl]amino}pyridin-2-yl)-1,3-thiazol-2-yl]-5,6,7,8-tetrahydronaphthalene-2-carboxamide], the IC50 is below 500 pM.

Regarding `CCc1ccnc(Nc2cc(C)cc(-c3cnc(C4(O)CCCc5cc(C(=O)O)ccc54)s3)n2)c1` (stereo not drawn) [Example 1P, 5-(5-{6-[(4-ethylpyridin-2-yl)amino]-4-methylpyridin-2-yl}-1,3-thiazol-2-yl)-5-hydroxy-5,6,7,8-tetrahydronaphthalene-2-carboxylic acid], the IC50 was below 500 pM.

For `Cc1cc(Nc2cc(C(F)(F)F)ccn2)nc(-c2cnc(C3(O)CCCCc4c(C(=O)O)cccc43)s2)c1` (single isomer, unassigned) [Example 15H, (R or S)-5-hydroxy-5-[5-(4-methyl-6-{[4-(trifluoromethyl)pyridin-2-yl]amino}pyridin-2-yl)-1,3-thiazol-2-yl]-6,7,8,9-tetrahydro-5H-benzo[7]annulene-1-carboxylic acid], the IC50 was below 500 pM.

In the case of `Cc1cc(Nc2cc(OC3CCOC3)ccn2)nc(-c2cnc(C3(O)CCCc4cc(C(=O)O)ccc43)s2)c1` (stereo not drawn) [Example 1T, 5-hydroxy-5-[5-(4-methyl-6-{[4-(tetrahydrofuran-3-yloxy)pyridin-2-yl]amino}pyridin-2-yl)-1,3-thiazol-2-yl]-5,6,7,8-tetrahydronaphthalene-2-carboxylic acid], the IC50 was below 500 pM.

Take `CCOc1ccnc(Nc2cc(C)cc(-c3cnc(C4(O)CCCc5cc(C(=O)O)ccc54)s3)n2)c1` (stereo not drawn) [Example 1N, 5-(5-{6-[(4-ethoxypyridin-2-yl)amino]-4-methylpyridin-2-yl}-1,3-thiazol-2-yl)-5-hydroxy-5,6,7,8-tetrahydronaphthalene-2-carboxylic acid]: the 50% inhibitory concentration (IC50) was below 500 pM.

For the compound `Cc1cc(Nc2cc(-n3cc(C)cn3)ccn2)nc(-c2cnc(C3(O)CCCc4cc(C(=O)O)ccc43)s2)c1` (stereo not drawn) [Example 1E, 5-hydroxy-5-[5-(4-methyl-6-{[4-(4-methyl-1H-pyrazol-1-yl)pyridin-2-yl]amino}pyridin-2-yl)-1,3-thiazol-2-yl]-5,6,7,8-tetrahydronaphthalene-2-carboxylic acid], the IC50 is below 500 pM.

`Cc1cc(Nc2cc(N3CCN(CCN)CC3)ccn2)nc(-c2cnc(C3(O)CCCc4cc(C(=O)O)ccc43)s2)c1` (stereo not drawn) [Example 1C, 5-{5-[6-({4-[4-(2-aminoethyl)piperazin-1-yl]pyridin-2-yl}amino)-4-methylpyridin-2-yl]-1,3-thiazol-2-yl}-5-hydroxy-5,6,7,8-tetrahydronaphthalene-2-carboxylic acid]: the IC50 is below 500 pM.

The term IC50 denotes the point on the concentration scale where inhibition reaches its midpoint.
